Test results taken from the supplement of paper PMC11208160.
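Note: IS621 bridge recombinase in Escherichia coli cells against a fixed T5 target plasmid.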

Assay: recombinant UMI read abundance after kanamycin selection (control-corrected) (log10(CPM+1)); higher = more efficient recombination; extreme values may be limits of the assay; sequences stand for … in AGTGCAGAGAAAATCGGCCAGTTTTCTCTGCCTGCAGTCCGCATGCCGTGGGACCCCTTGGGTTCTAACCTGTTGCCTAGATTTATGCAGCGGACTGCCTTTCTCCCAAAGTGATAAACCGG…AGGTTGGTTTCACT; site = the 11-nt donor
In short: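 Pooled Escherichia coli screen of donor and donor-binding-loop pairs for the IS621 bridge recombinase. Each pair sits with a 12-nt UMI on a plasmid carrying a promoterless kanamycin gene. The library was co-electroporated with a target plasmid encoding a fixed target and T7-inducible recombinase, then plated with IPTG (0.07 mM) plus kanamycin, or unselected, each in two replicates. Recombinant UMIs were PCR-amplified across the donor–target junction and sequenced. Counts became CPM, averaged over replicates, scaled by control-derived factors and reported as log10(CPM+1).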
In the case of “AGGAAGACATGGACCGGTTTTCCCGGTAATCCGTATTTGCA (site AGGTGGACTTG)”, the “recombinant UMI read abundance (log10)” value is reported as 0.577.
With “TTGCCTTCATGGACCGGTTTTCCCGGTAATCCGTATTTGGT (site TCGCCTTCTAC)” the “recombinant UMI read abundance (log10)” value was 0.00778.
With “CGAGCGACATGGACCGGTTTTCCCGGTAATCCGTATTTGTT (site CGACCGACTAA)” the “recombinant UMI read abundance (log10)” value was 0.0145.
With “GCATGCACATGGACCGGTTTTCCCGGTAATCCGTATTTGTA (site GAATGCACTTA)” the “recombinant UMI read abundance (log10)” value was 0.245.
For “GTAATACCATGGACCGGTTTTCCCGGTAATCCGTATTTGCA (site GTAATACCTTG)”, the “recombinant UMI read abundance (log10)” value was 0.
With “AGTACGTCATGGACCGGTTTTCCCGGTAATCCGTATTTGTT (site CGTACGTCTAA)” the “recombinant UMI read abundance (log10)” value was 0.552.
In the case of “ATAAAGCCATGGACCGGTTTTCCCGGTAATCCGTATTTGAC (site ATAAAGCCTGT)”, the “recombinant UMI read abundance (log10)” value is reported as 0.
For “AGCTGGTCATGGACCGGTTTTCCCGGTAATCCGTATTTGTA (site AGCTGGTCTTA)”, the “recombinant UMI read abundance (log10)” value was 0.951.
With “ATGTTCGCATGGACCGGTTTTCCCGGTAATCCGTATTTGTA (site ATGTTCGCTTA)” the “recombinant UMI read abundance (log10)” value was 2.46.
In the case of “GGATAGACATGGACCGGTTTTCCCGGTAATCCGTATTTGCT (site GGATAGACTTG)”, the “recombinant UMI read abundance (log10)” value is reported as 1.1.
For “GAAGATTCATGGACCGGTTTTCCCGGTAATCCGTATTTGTG (site GAAGATTCTAA)”, the “recombinant UMI read abundance (log10)” value was 1.55.
In the case of “CCATTAGCATGGACCGGTTTTCCCGGTAATCCGTATTTGTG (site CCTTTAGCTCA)”, the “recombinant UMI read abundance (log10)” value is reported as 0.0119.
For “GAATACTCATGGACCGGTTTTCCCGGTAATCCGTATTTGGA (site GAATACTCTTC)”, the “recombinant UMI read abundance (log10)” value was 2.53.
In the case of “CCTAAAGCATGGACCGGTTTTCCCGGTAATCCGTATTTGAC (site CCTAAAGCTCT)”, the “recombinant UMI read abundance (log10)” value is reported as 0.00302.
For “GAGAAGACATGGACCGGTTTTCCCGGTAATCCGTATTTGAA (site GAGAAGACTTT)”, the “recombinant UMI read abundance (log10)” value was 1.82.
With “CCTAATACATGGACCGGTTTTCCCGGTAATCCGTATTTGGA (site CCTAATACTAC)” the “recombinant UMI read abundance (log10)” value was 0.
In the case of “CGTTCGGCATGGACCGGTTTTCCCGGTAATCCGTATTTGCT (site CGTTGGGCTAG)”, the “recombinant UMI read abundance (log10)” value is reported as 0.00466.
For “CCGTTTACATGGACCGGTTTTCCCGGTAATCCGTATTTGCC (site CCGTTTACTTG)”, the “recombinant UMI read abundance (log10)” value was 0.
For “AGGAAGACATGGACCGGTTTTCCCGGTAATCCGTATTTGCA (site GTGAAGACTTG)”, the “recombinant UMI read abundance (log10)” value was 0.
For “GTACGCTCATGGACCGGTTTTCCCGGTAATCCGTATTTGAA (site GTACGCTCTTT)”, the “recombinant UMI read abundance (log10)” value was 2.11.
For “CGAGGTCCATGGACCGGTTTTCCCGGTAATCCGTATTTGGG (site CGAGGTCCTCC)”, the “recombinant UMI read abundance (log10)” value was 0.0134.
For “CGGGTACCATGGACCGGTTTTCCCGGTAATCCGTATTTGAT (site CGGGCACCTAT)”, the “recombinant UMI read abundance (log10)” value was 0.
For “TCCAATACATGGACCGGTTTTCCCGGTAATCCGTATTTGCC (site TCCAATCCTGG)”, the “recombinant UMI read abundance (log10)” value was 0.
With “GGGGAGCCATGGACCGGTTTTCCCGGTAATCCGTATTTGAA (site GGGGAGCCTTT)” the “recombinant UMI read abundance (log10)” value was 0.
With “CGGCGTACATGGACCGGTTTTCCCGGTAATCCGTATTTGCT (site CGTCGTACTAG)” the “recombinant UMI read abundance (log10)” value was 0.
In the case of “CGGAAGACATGGACCGGTTTTCCCGGTAATCCGTATTTGCA (site CGGAAGACTTG)”, the “recombinant UMI read abundance (log10)” value is reported as 1.73.
For “GTATGCACATGGACCGGTTTTCCCGGTAATCCGTATTTGAA (site GTATGCACTTA)”, the “recombinant UMI read abundance (log10)” value was 0.217.
For “CCGTTGACATGGACCGGTTTTCCCGGTAATCCGTATTTGCT (site CCGTTAACTAG)”, the “recombinant UMI read abundance (log10)” value was 0.
In the case of “AGGACTACATGGACCGGTTTTCCCGGTAATCCGTATTTGTC (site AGGACTACTGG)”, the “recombinant UMI read abundance (log10)” value is reported as 0.
In the case of “GCGGGTGCATGGACCGGTTTTCCCGGTAATCCGTATTTGCC (site GCGGGTGCTGG)”, the “recombinant UMI read abundance (log10)” value is reported as 1.43.
For “GTTGTTCCATGGACCGGTTTTCCCGGTAATCCGTATTTGAT (site GTTGTTCCTAC)”, the “recombinant UMI read abundance (log10)” value was 0.00806.
With “AACCGGCCATGGACCGGTTTTCCCGGTAATCCGTATTTGAT (site AACCGCCCTAT)” the “recombinant UMI read abundance (log10)” value was 0.014.
For “CTCCCTACATGGACCGGTTTTCCCGGTAATCCGTATTTGAG (site TTCCCTACTCT)”, the “recombinant UMI read abundance (log10)” value was 0.00609.
For “TAGAATACATGGACCGGTTTTCCCGGTAATCCGTATTTGAA (site TAGAATACTTT)”, the “recombinant UMI read abundance (log10)” value was 0.686.
For “GATTTGACATGGACCGGTTTTCCCGGTAATCCGTATTTGAC (site GATTTGACTGT)”, the “recombinant UMI read abundance (log10)” value was 0.525.
With “GTAGCGACATGGACCGGTTTTCCCGGTAATCCGTATTTGAG (site GTAGCGACTCT)” the “recombinant UMI read abundance (log10)” value was 1.28.
For “GGCCACCCATGGACCGGTTTTCCCGGTAATCCGTATTTGTC (site GGCCACCCTCA)”, the “recombinant UMI read abundance (log10)” value was 0.0127.
For “ACAGTGGCATGGACCGGTTTTCCCGGTAATCCGTATTTGCG (site ACAGTGGCTCG)”, the “recombinant UMI read abundance (log10)” value was 1.93.
With “ATAAGGCCATGGACCGGTTTTCCCGGTAATCCGTATTTGAC (site ATAAGGTCTGT)” the “recombinant UMI read abundance (log10)” value was 1.87.
With “CGGTCATCATGGACCGGTTTTCCCGGTAATCCGTATTTGCT (site CGGGCATCTAG)” the “recombinant UMI read abundance (log10)” value was 0.
With “TAGGAATCATGGACCGGTTTTCCCGGTAATCCGTATTTGTG (site TAGGAATCTCC)” the “recombinant UMI read abundance (log10)” value was 2.13.
With “GCAGGCCCATGGACCGGTTTTCCCGGTAATCCGTATTTGCT (site GCAGGCCCTAG)” the “recombinant UMI read abundance (log10)” value was 0.921.
For “GGCCACCCATGGACCGGTTTTCCCGGTAATCCGTATTTGTT (site GGCCACACTAA)”, the “recombinant UMI read abundance (log10)” value was 0.0112.
For “GGATAGACATGGACCGGTTTTCCCGGTAATCCGTATTTGCT (site GGATAGACTCG)”, the “recombinant UMI read abundance (log10)” value was 0.855.
For “ACCGCTACATGGACCGGTTTTCCCGGTAATCCGTATTTGCC (site ACCGCTACTGG)”, the “recombinant UMI read abundance (log10)” value was 1.75.
With “ACCTCGTCATGGACCGGTTTTCCCGGTAATCCGTATTTGAA (site ACCTCGTCTTT)” the “recombinant UMI read abundance (log10)” value was 0.5.
With “GTCCACCCATGGACCGGTTTTCCCGGTAATCCGTATTTGTT (site GCCCACCCTAA)” the “recombinant UMI read abundance (log10)” value was 0.0129.
With “CTACTAACATGGACCGGTTTTCCCGGTAATCCGTATTTGCA (site CTACTAACTTC)” the “recombinant UMI read abundance (log10)” value was 0.0167.
For “AGGAAGACATGGACCGGTTTTCCCGGTAATCCGTATTTGCA (site ACGAAGACTTA)”, the “recombinant UMI read abundance (log10)” value was 0.00527.
For “TCAGCATCATGGACCGGTTTTCCCGGTAATCCGTATTTGCA (site ACAGTATCTTG)”, the “recombinant UMI read abundance (log10)” value was 0.8.
With “CGTGAAACATGGACCGGTTTTCCCGGTAATCCGTATTTGTT (site CGTGCAACTAA)” the “recombinant UMI read abundance (log10)” value was 0.
With “GTCTTGACATGGACCGGTTTTCCCGGTAATCCGTATTTGTG (site GTCTTGACTCA)” the “recombinant UMI read abundance (log10)” value was 0.296.
For “ACGGTCACATGGACCGGTTTTCCCGGTAATCCGTATTTGTA (site ACGGTCACTTA)”, the “recombinant UMI read abundance (log10)” value was 1.59.
In the case of “CACTCTTCATGGACCGGTTTTCCCGGTAATCCGTATTTGCC (site CACTCTTCTGG)”, the “recombinant UMI read abundance (log10)” value is reported as 2.07.
For “GGTTATCCATGGACCGGTTTTCCCGGTAATCCGTATTTGCT (site GGTTATCCTAG)”, the “recombinant UMI read abundance (log10)” value was 0.
For “AGCGTGGCATGGACCGGTTTTCCCGGTAATCCGTATTTGGG (site AGCGTGGCTCC)”, the “recombinant UMI read abundance (log10)” value was 0.277.
In the case of “GTAGGTACATGGACCGGTTTTCCCGGTAATCCGTATTTGAC (site GTAGGTACTGG)”, the “recombinant UMI read abundance (log10)” value is reported as 0.351.
With “TTCCTGGCATGGACCGGTTTTCCCGGTAATCCGTATTTGAG (site TTCCTGGCTCT)” the “recombinant UMI read abundance (log10)” value was 0.00387.
With “ACCGGTCCATGGACCGGTTTTCCCGGTAATCCGTATTTGCA (site CCCGGTCCTTG)” the “recombinant UMI read abundance (log10)” value was 0.
With “CTATGCTCATGGACCGGTTTTCCCGGTAATCCGTATTTGAA (site CGATGCTCTTT)” the “recombinant UMI read abundance (log10)” value was 0.383.
In the case of “AATTCGTCATGGACCGGTTTTCCCGGTAATCCGTATTTGAA (site AATTCGTCTTT)”, the “recombinant UMI read abundance (log10)” value is reported as 0.559.
For “TCATTCTCATGGACCGGTTTTCCCGGTAATCCGTATTTGCT (site TCATTCTCTAG)”, the “recombinant UMI read abundance (log10)” value was 0.981.
With “CTCTACACATGGACCGGTTTTCCCGGTAATCCGTATTTGCT (site CTCTACGCTAG)” the “recombinant UMI read abundance (log10)” value was 0.84.
In the case of “AAGCACACATGGACCGGTTTTCCCGGTAATCCGTATTTGGG (site AAGCACGCTCC)”, the “recombinant UMI read abundance (log10)” value is reported as 0.0056.
In the case of “GCGAAAACATGGACCGGTTTTCCCGGTAATCCGTATTTGCC (site GCGAAAACTAG)”, the “recombinant UMI read abundance (log10)” value is reported as 0.
For “CGATCGACATGGACCGGTTTTCCCGGTAATCCGTATTTGTG (site CGATCGACTCA)”, the “recombinant UMI read abundance (log10)” value was 0.139.
For “AGAAGGGCATGGACCGGTTTTCCCGGTAATCCGTATTTGCT (site AGAATGGCTAG)”, the “recombinant UMI read abundance (log10)” value was 0.25.
In the case of “CCCGGTCCATGGACCGGTTTTCCCGGTAATCCGTATTTGCA (site CCCGGTCCTTA)”, the “recombinant UMI read abundance (log10)” value is reported as 0.0178.
In the case of “CTCATATCATGGACCGGTTTTCCCGGTAATCCGTATTTGAC (site CTCATATCTGT)”, the “recombinant UMI read abundance (log10)” value is reported as 1.29.
In the case of “TAGCTAGCATGGACCGGTTTTCCCGGTAATCCGTATTTGAA (site TAGCTCGCTTT)”, the “recombinant UMI read abundance (log10)” value is reported as 0.0026.
In the case of “CTCTACTCATGGACCGGTTTTCCCGGTAATCCGTATTTGCT (site CTCTACCCTAG)”, the “recombinant UMI read abundance (log10)” value is reported as 1.17.
With “CCCATAGCATGGACCGGTTTTCCCGGTAATCCGTATTTGTC (site CCCATATCTGA)” the “recombinant UMI read abundance (log10)” value was 0.
For “CGAGGACCATGGACCGGTTTTCCCGGTAATCCGTATTTGTG (site CGAGGACCTCT)”, the “recombinant UMI read abundance (log10)” value was 0.0187.
With “ATTGAGACATGGACCGGTTTTCCCGGTAATCCGTATTTGGG (site ATTGAGACTCC)” the “recombinant UMI read abundance (log10)” value was 0.0142.
For “CGCGATTCATGGACCGGTTTTCCCGGTAATCCGTATTTGGA (site CGCGATTCTTC)”, the “recombinant UMI read abundance (log10)” value was 2.31.
